Structures can show the parent of a compound that is named as a salt. Where two headings read alike, the source gives them in different places.
System: Malassezia furfur
Experiment: ΣFIC assay against Malassezia furfur (checkerboard in-vitro susceptibility testing, alamar blue)
Format: cell-based, M. furfur (CBS 1878)
Protocol: A brief description of the method is given below.
Methods: ΣFIC Assay Against Malassezia furfur
They are then incubated at 32° C. for 48 hrs with shaking. Then, 1 ml of the first broth culture is transferred into 9 ml of fresh PB and incubated at 32° C. for 48 hrs with shaking. The final culture should contain 2 to 6×10^6 cells/ml. This is achieved by diluting using PB to 5*10^6 cell/ml.
The piperazine compound was serially diluted (2-fold) to prepare in a range of 10-10,000 ppm in growth medium.
Binary combinations of ZPTO and the testing compound were prepared in 96-well plate by mixing 20 μl of zinc pyrithione solution with 20 μl of testing compound. The solution in each well were further mixed with 160 μl of PB and 20 μl of M. furfur. The final cell density in the testing plate is around 5*10^4 cell/ml, and the final concentration of actives in each well of the 96-well plate were shown below.
The plate was incubated at 32° C. for one day. Then 20 μl of alamar blue (0.01%) was added into each well with a further incubation for one day to observe the color change. Red color indicates microbial growth and the non-changing blue color indicates no growth.
The MIC is defined as the absolute lowest concentration of active that provides complete microbial growth inhibition as indicated by the blue color of alamar blue under the tested condition.
The differing behaviours of inhibitory antimicrobials in isolation and mixtures have been widely explored using the concept of the Fractional Concentration (FC) and Fractional Inhibitory Concentration (FIC). The parameter can be defined as follows: […]
The interactions between antimicrobials can be additive, synergistic or antagonistic depending on whether the efficacy of the combination is equivalent to, greater than or less than that obtained for the same total concentration of the individual components when tested alone.
These relationships can be expressed mathematically by summing the fractional MIC values for all the components present in the mixture to give the “fractional inhibition index”. There is no consistent approach in the academic or patent literature in defining precise limiting ΣFIC values that differentiate synergy from additivity or antagonism. In this study, we have adopted a liberal approach defining any binary mixture with ΣFIC<0.9 as showing evidence of synergistic behavior.
ΣFIC=FIC (component 1)+FIC (component 2)
ΣFIC=1 corresponds to additive bactericidal activity
ΣFIC>1 corresponds to antagonistic bactericidal activity
ΣFIC<0.9 corresponds to synergistic bactericidal activity

[1] = CBS1878, read-out: Minimum Inhibition Concentration (MIC)
[2] = CBS1878, active alone, M. furfur CBS 1878 in Pityrosporum Broth, 32° C., complete growth inhibition by alamar blue, read-out: Minimum Inhibition Concentration (MIC)

SMILES	MIC [1]	MIC [2]
CCc1ccc(CN2CCN(Cc3cccc(Cl)c3)CC2)cc1 [1-(3-chlorobenzyl)-4-(4-ethylbenzyl)piperazine oxalate]	> 1000 µg/mL	
CC(C)C(=O)N1CCN(c2ccc(F)cc2)CC1 [1-(4-fluorophenyl)-4-isobutyrylpiperazine]		> 1000 µg/mL
O=C(c1ccccc1F)N1CCN(C2CCC(c3ccccc3)CC2)CC1 (centres unmarked) [1-(2-fluorobenzoyl)-4-(4-phenylcylcohexyl)piperazine]		100 µg/mL
CC(C)C(=O)N1CCN(c2ccccc2)CC1 [1-isobutyryl-4-phenylpiperazine]		> 1000 µg/mL
CCc1ccc(CN2CCN(C3CCC(C)CC3)CC2)cc1 (centres unmarked) [1-(4-ethylbenzyl)-4-(4-methylcyclohexyl)piperazine oxalate]	125 µg/mL	

Source: patent publication US10617621B2, “Antimicrobial composition” (Conopco, Inc., priority 2016, dated 2020)
